Laboratory results published in patent US20230117592A1 (SRI International, priority 2019, published 2023).
Values joined by “and” are separate entries in the source; they are usually repeats but may differ in a detail not shown here. Equal values may be shown once. Read-outs that look alike come from different tables or passages of the source.

Assays:
[1] = molecular target: T1, 12-LOX (Homo sapiens, UniProt P18054); assay: 12-LOX fluorescent assay (in vitro lipoxygenase inhibition); assay type: biochemical
T1 sequence (P18054 1-663): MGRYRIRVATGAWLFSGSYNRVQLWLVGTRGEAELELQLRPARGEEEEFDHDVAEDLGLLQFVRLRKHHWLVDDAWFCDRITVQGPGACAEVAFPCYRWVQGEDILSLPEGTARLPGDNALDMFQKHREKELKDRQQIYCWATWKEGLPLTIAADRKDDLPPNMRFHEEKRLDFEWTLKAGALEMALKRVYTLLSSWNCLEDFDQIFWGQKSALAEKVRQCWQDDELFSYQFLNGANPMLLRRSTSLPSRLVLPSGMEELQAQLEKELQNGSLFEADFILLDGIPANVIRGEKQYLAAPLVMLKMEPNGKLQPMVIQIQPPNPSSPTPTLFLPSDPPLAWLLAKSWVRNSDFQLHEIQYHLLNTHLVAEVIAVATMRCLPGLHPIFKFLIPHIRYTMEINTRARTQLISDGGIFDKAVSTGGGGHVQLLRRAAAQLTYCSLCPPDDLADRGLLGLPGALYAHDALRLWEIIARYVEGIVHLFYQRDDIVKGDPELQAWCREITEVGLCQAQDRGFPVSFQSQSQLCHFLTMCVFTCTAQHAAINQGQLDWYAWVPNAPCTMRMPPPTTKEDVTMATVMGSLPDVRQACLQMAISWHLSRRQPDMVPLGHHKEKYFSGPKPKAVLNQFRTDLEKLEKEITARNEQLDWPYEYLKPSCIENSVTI
Experimental: 12-LOX/15-LOX Fluorescent Assay
The enzyme assay (100 ul) contained 50 mM Tris, pH 7.5, 0.05% Tween-20, 20 μM AA/LA, 1 μM DHR123, and 100 nM recombinant 12-LOX enzyme/50 nM recombinant 15-LOX enzyme. Inhibitors (dissolved in DMSO) were plated at 1 μL into 96-well assay microplates followed by a 40 μL addition of a solution containing 12-LOX/15-LOX enzyme. Enzyme was pre-incubated with compounds for 15 mins. The assay was initiated by the addition of a 40 μL substrate solution containing AA/LA, and 20μL addition of a solution containing DHR123. […] Percent inhibition was calculated for each compound dose for IC50 curve fitting using 4 Parameter Logistic Model or Sigmoidal Dose-Response Model.

[2] = molecular target: T2, 5-LOX (Homo sapiens, UniProt P09917); assay: 5-LOX fluorescent assay (in vitro lipoxygenase inhibition); assay type: biochemical; settings: recombinant 5-LOX cell lysate, 20 μM AA, DHR123 fluorescence; several values in a cell = repeat determinations; read-out: IC50 (μM) values for in vitro lipoxygenase inhibition, 5-LOX
T2 sequence (P09917 1-674): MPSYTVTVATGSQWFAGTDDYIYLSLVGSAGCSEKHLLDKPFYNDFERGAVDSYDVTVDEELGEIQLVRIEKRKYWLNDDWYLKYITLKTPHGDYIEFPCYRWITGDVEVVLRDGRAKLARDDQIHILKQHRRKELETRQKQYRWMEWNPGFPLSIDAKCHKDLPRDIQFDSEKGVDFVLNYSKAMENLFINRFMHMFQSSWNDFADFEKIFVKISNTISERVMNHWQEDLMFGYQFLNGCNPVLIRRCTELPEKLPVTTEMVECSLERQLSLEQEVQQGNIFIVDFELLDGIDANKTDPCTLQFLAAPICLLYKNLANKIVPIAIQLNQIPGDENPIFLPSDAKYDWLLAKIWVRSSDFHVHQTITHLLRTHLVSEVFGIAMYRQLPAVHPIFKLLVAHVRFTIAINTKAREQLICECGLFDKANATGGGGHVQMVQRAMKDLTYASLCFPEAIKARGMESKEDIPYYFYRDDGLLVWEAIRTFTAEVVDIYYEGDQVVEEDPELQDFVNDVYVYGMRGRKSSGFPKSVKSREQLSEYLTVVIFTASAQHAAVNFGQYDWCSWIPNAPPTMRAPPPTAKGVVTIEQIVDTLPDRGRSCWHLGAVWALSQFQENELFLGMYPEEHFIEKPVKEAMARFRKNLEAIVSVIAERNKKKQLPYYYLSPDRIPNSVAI
Experimental: 5-LOX FI assay Fluorescent Assay
The enzyme assay (100 μL) contained 50 mM Tris, pH 7.5, 0.1 mM EDTA, 0.3 mM CaCl2, 20 μM AA, 100 μM ATP, 1 μM DHR123, and recombinant 5-LOX cell lysate (0.5 μL/100 μL). Inhibitors (dissolved in DMSO) were plated at 1 μL into 96-well assay microplates followed by a 40 μL addition of a solution containing 5-LOX enzyme. Enzyme was pre-incubated with compounds for 15 mins. The assay was initiated by the addition of a 40 μL substrate solution containing AA and ATP, and 20 μL addition of a solution containing DHR123. […] Percent inhibition was calculated for each compound dose for IC50 curve fitting using 4 Parameter Logistic Model or Sigmoidal Dose-Response Model.

[3] = 100 nM recombinant 12-LOX, 20 μM AA, DHR123 fluorescence, several values in a cell = repeat determinations, read-out: IC50 (μM) values for in vitro lipoxygenase inhibition, 12-LOX

Row | SMILES | IC50 [1, 3] | IC50 [2] | IC50 [1] [µM]
1 | Fc1ccc(Nc2ccc(NCC3(CN4CCOCC4)COC3)c(C(F)(F)F)c2)cc1 | 0.04 µM | 0.06 µM | –
2 | COc1ccc(CNc2cccc(N)c2OCCN(C)C)cc1 [SS20308-0025-01, 2-(2-(dimethylamino)ethoxy)-N^1-(4-methoxybenzyl)benzene-1,3-diamine] | 1.29 µM | 7.31 µM | –
3 | CCOC(=O)c1ccc(Nc2ccccc2OCCn2cncn2)cc1 [SS20308-0033-01, ethyl 4-(2-(2-(1H-1,2,4-triazol-1-yl)ethoxy)phenylamino)benzoate] | 23.9 µM | 50.3 µM | –
4 | COc1ccc(CNc2cccc(Nc3ccccc3)c2OCCN(C)C)cc1 [SS20308-0052-01, 2-(2-(dimethylamino)ethoxy)-N^1-(4-methoxybenzyl)-N^3-phenylbenzene-1,3-diamine] | 0.62 µM | 1.32 µM | –
5 | COc1ccc(CNc2ccc3c(-c4ccccc4)cc(=O)[nH]c3c2OCCN(C)C)cc1 [SS20308-0053-01, 8-(2-(dimethylamino)ethoxy)-7-((4-methoxybenzyl)amino)-4-phenylquinolin-2(1H)-one] | 5.2 µM | 3.36 µM | –
6 | CCOC(=O)c1ccc(Nc2cccc(Nc3ccccc3)c2OCCn2cncn2)cc1 [SS20308-0055-01, ethyl 4-(2-(2-(1H-1,2,4-triazol-1-yl)ethoxy)-3-(phenylamino)phenylamino)benzoate] | 1.64 µM | 3.33 µM | –
7 | CN(C)CCOc1c(NCc2ccccc2)cccc1Nc1ncccc1Cl [SS20308-0071-01, N^1-benzyl-N^3-(3-chloropyridin-2-yl)-2-(2-(dimethylamino)ethoxy)benzene-1,3-diamine] | 4.9 µM | 5.73 µM | –
8 | CN(C)CCOc1c(Nc2ccccc2)ccc2c(-c3ccccc3)cc(=O)[nH]c12 [SS20308-0072-01, 8-(2-(dimethylamino)ethoxy)-4-phenyl-7-(phenylamino)quinolin-2(1H)-one] | 3.37 µM | 7.23 µM | –
9 | c1ccc(Nc2ccc(-c3ccccc3)c(NCCn3cncn3)c2)cc1 [SS20308-0095-01, N^2-(2-(1H-1,2,4-triazol-1-yl)ethyl)-N^4-phenylbiphenyl-2,4-diamine] | – | 0.35 µM | 0.18
10 | c1ccc(CNc2ccc(-c3ccccc3)c(NCCn3cncn3)c2)cc1 [SS20308-0096-01, N^2-(2-(1H-1,2,4-triazol-1-yl)ethyl)-N^4-benzyl-[1,1′-biphenyl]-2,4-diamine] | 0.24 µM | 0.55 µM | –
11 | CN(C)CCNc1cc(Nc2ccccc2)ccc1-c1ccccc1 [SS20308-0130-01, N2-(2-(dimethylamino)ethyl)-N4-phenyl-[1,1′-biphenyl]-2,4-diamine] | 0.25 µM | 0.24 µM | –
12 | CN(CCn1cncn1)c1cc(Nc2ccccc2)ccc1-c1ccccc1 [SS20308-0131-01, N2-(2-(1H-1,2,4-triazol-1-yl)ethyl)-N2-methyl-N4-phenyl-[1,1′-biphenyl]-2,4-diamine] | – | 0.25 µM | –
13 | c1ccc(Nc2ccc(-c3ccccc3)c(OCCn3cncn3)c2)cc1 [SS20308-0132-01, 2-(2-(1H-1,2,4-triazol-1-yl)ethoxy)-N-phenyl-[1,1′-biphenyl]-4-amine] | – | 0.6 µM | 0.49
14 | Cc1cccc(C)c1-c1ccc(Nc2ccccc2)cc1NCCn1cncn1 [SS20308-0133-01, N2-(2-(1H-1,2,4-triazol-1-yl)ethyl)-2′,6′-dimethyl-N4-phenyl-[1,1′-biphenyl]-2,4-diamine] | 0.14 µM | 0.22 µM | –
15 | O=C(CCn1cncn1)Nc1cc(Nc2ccccc2)ccc1-c1ccccc1 [SS20308-0134-01, N-(4-(phenylamino)-[1,1′-biphenyl]-2-yl)-3-(1H-1,2,4-triazol-1-yl)propanamide] | 1.49 µM | 2.32 µM | –
16 | O=C(Nc1ccc(-c2ccccc2)c(NCCn2cncn2)c1)c1ccccc1 [SS20308-0135-01, N-(2-((2-(1H-1,2,4-triazol-1-yl)ethyl)amino)-[1,1′-biphenyl]-4-yl)benzamide] | 20.8 µM | 25.7 µM | –
17 | Fc1ccc(Nc2ccc(-c3ccccc3)c(NCCn3cncn3)c2)cc1 [SS20308-0142-01, N^2-(2-(1H-1,2,4-triazol-1-yl)ethyl)-N^4-(4-fluorophenyl)biphenyl-2,4-diamine] | 0.09 µM and 0.17 µM | 0.18 µM and 0.34 µM | –
18 | OCc1ccccc1-c1ccc(Nc2ccccc2)cc1NCCn1cncn1 [SS20308-0143-01, (2′-(2-(1H-1,2,4-triazol-1-yl)ethylamino)-4′-(phenylamino)biphenyl-2-yl)methanol] | 0.33 µM | 0.94 µM | –
19 | COc1ccccc1-c1ccc(Nc2ccccc2)cc1NCCn1cncn1 [SS20308-0144-01, N^2-(2-(1H-1,2,4-triazol-1-yl)ethyl)-2′-methoxy-N^4-phenylbiphenyl-2,4-diamine] | 0.18 µM | 0.4 µM | –
20 | c1ccc(CNc2ccc(NCCn3cncn3)c(-c3ccccc3)c2)cc1 [SS20308-0145-01, N^2-(2-(1H-1,2,4-triazol-1-yl)ethyl)-N^5-benzyl-[1,1′-biphenyl]-2,5-diamine] | 0.02 µM | 30 nM and 50 nM (2×) | –
21 | O=C(Nc1ccc(NCCn2cncn2)c(-c2ccccc2)c1)c1ccccc1 [SS20308-0146-01, N-(6-((2-(1H-1,2,4-triazol-1-yl)ethyl)amino)-[1,1′-biphenyl]-3-yl)benzamide] | 4.02 µM | 3.77 µM | –
22 | Clc1ccc(-c2ccc(Nc3ccccc3)cc2NCCn2cncn2)cc1 [SS20308-0147-01, N^2-(2-(1H-1,2,4-triazol-1-yl)ethyl)-4′-chloro-N^4-phenylbiphenyl-2,4-diamine] | 0.14 µM | 0.17 µM | –
23 | Fc1c(Nc2ccccc2)ccc(-c2ccccc2)c1NCCn1cncn1 [SS20308-0148-01, N^2-(2-(1H-1,2,4-triazol-1-yl)ethyl)-3-fluoro-N^4-phenylbiphenyl-2,4-diamine] | – | 3.77 µM and 0.76 µM | –
24 | OCCc1ccccc1-c1ccc(Nc2ccccc2)cc1NCCn1cncn1 [SS20308-0149-01, 2-(2′-(2-(1H-1,2,4-triazol-1-yl)ethylamino)-4′-(phenylamino)biphenyl-2-yl)ethanol] | 0.3 µM | 0.63 µM | –
25 | c1ccc(Nc2ccc(NCCCn3cncn3)c(-c3ccccc3)c2)cc1 [SS20308-0151-01, N^2-(3-(1H-1,2,4-triazol-1-yl)propyl)-N^5-phenylbiphenyl-2,5-diamine] | – | 0.07 µM and 0.04 µM | 0.02
26 | c1ccc(Nc2cccc(-c3ccccc3)c2NCCn2cncn2)cc1 [SS20308-0153-01, N^2-(2-(1H-1,2,4-triazol-1-yl)ethyl)-N^3-phenylbiphenyl-2,3-diamine] | 0.2 µM | 0.71 µM | –
27 | Cc1cc(Nc2ccc(F)cc2Cl)ccc1NCC1(CN2CCCC2)COC1 [SS20308-0310-01, N^4-(2-chloro-4-fluorophenyl)-2-methyl-N^1-((3-(pyrrolidin-1-ylmethyl)oxetan-3-yl)methyl)benzene-1,4-diamine] | – | 0.11 µM and 0.14 µM and 0.1 µM and 0.19 µM and 0.29 µM | –
